Experiments:
[1] = test system: HBV; settings: HBV patients; cited from earlier work
[2] = test system: HBV; assay: Chou-Talalay combination analysis with Lamivudine against HBV replication; format: cell-based, hepatitis B virus; settings: together with Lamivudine; CI <1.0 indicates synergy
Description: Current nucleos(t)ide analog therapy for HBV has converted hepatitis type B from an implacably progressing illness to a controllable disease. However, patients are only very rarely cured, in part due to the incomplete inhibition of HBV replication. The inventors hypothesized that the novel RNaseH inhibitors would work synergistically with the existing nucleos(t)ide analogs because the two classes of drugs target physically distinct active sites on the viral polymerase protein. […] RNAseH inhibitors from two different chemical classes were employed, compound #1 [2-hydroxyisoquinoline-1,3(2H,4H)-dione], an HID, and #46 (β-thujaplicinol), an α-hydroxytropolone, were tested. Chou-Talaly analysis yields a combination index (CI). CI values <1.0 indicate synergy, CIs of approximately 1.0 indicate additive interactions, and CI values >1.0 indicate antagonism. CI values are calculated at various efficacy levels (EC50, EC75, EC90, and EC95), and a weighted CI value favoring higher efficacy levels is also generated. FIGS. 4A & 4B show the results of four experiments employing compound #1 and three with compound #46. […] Therefore, RNAseH inhibitors act strongly synergistically with an approved nucleos(t)ide analog drug against HBV.

[3] = test system: HBV RNAseH; assay: Biochemical RNAseH assay with patient-derived variant HBV RNAseH enzymes; parameters: species or system hepatitis B virus; settings: four genotype D patient-derived enzymes; compound at its IC50 (FIGS. 5A & 5B)
Procedure: RNaseH activity was measured using an oligonucleotide-directed RNA cleavage assay as previously described in Hu, et al., Tavis, et al., and Cai, et al. (2013; 2013; and 2014, respectfully). Briefly, 6 μL protein extract was mixed on ice with an internally ^32P-labeled 264 nt RNA derived from the Duck Hepatitis B Virus genome (DRF+ RNA) plus 3 μg oligonucleotide D2507- or its inverse-complement oligonucleotide D2526+ as a negative control. This mixture was incubated with test compounds in 50 mM Tris pH 8.0, 190 mM NaCl, 5 mM MgCl2, 3.5 mM DTT, 0.05% NP40, 6% glycerol, and 1% DMSO at 42° C. for 90 minutes. Cleavage products were resolved by denaturing polyacrylamide gel electrophoresis, detected by autoradiography, and quantified using ImageJ. Non-specific background values were determined from the incorrect oligonucleotide negative control lane and subtracted from all experimental values. IC50 values were then calculated with GraphPad Prism using three-parameter log(inhibitor) vs. response non-linear curve fitting with the curve minimum set to zero to reflect background subtraction.
HBV has 8 genotypes differing in sequence by 8%. Genetic diversity in the RNAseH domain is about 6%, which is easily high enough to modulate viral sensitivity to RNAseH inhibitors. […]

Compound | sustained clinical improvement [1] | weighted combination index (CI) [2] | inhibition of HBV RNAseH [3]
Interferon α | 20-30 % of patients |  | 
O=C1Cc2ccccc2C(=O)N1O [#1, 2-hydroxyisoquinoline-1,3(2H,4H)-dione] |  | 0.70±0.1 | about 50%

From patent publication US11191754B2, “Inhibitors of nucleotidyl transferases and uses in herpes and hepatitis viral infections therefor” (Saint Louis University, priority 2015, dated 2021)
